Results published in patent US12012386B2, “Olaparib oxalic acid cocrystals and their pharmaceutical use” (NUFORMIX TECHNOLOGIES LIMITED, priority 2020, dated 2024).
≈ marks a conversion by molar mass, not a printed value. Entries after “also recorded” stand apart in the source; their conditions may differ.

What was measured:
[1] = Gravimetric Vapour Sorption (GVS) analysis; assay type: physicochemical; conditions: for polymorphic form conversion or hydrate formation under raised relative humidity levels: GVS; for moisture reversibly adsorbed (GVS): across the 0-90% relative humidity range at 25° C. under nitrogen; for XRPD analysis post GVS analysis: at both 0% RH and 90% RH
Description: Gravimetric Vapor Isotherm (GVS) Analysis: Sorption isotherms were obtained using a Hiden Isochema moisture sorption analyser (model IGAsorp), controlled by IGAsorp Systems Software V6.50.48. The sample was maintained at a constant temperature (25° C.) by the instrument controls. The humidity was controlled by mixing streams of dry and wet nitrogen, with a total flow of 250 ml·min^−1. The instrument was verified for relative humidity content by measuring three calibrated Rotronic salt solutions (10-50-88%). The weight change of the sample was monitored as a function of humidity by a microbalance (accuracy +/−0.005 mg). A defined amount of sample was placed in a tared mesh stainless steel basket under ambient conditions. The sample was held at 50% RH for ˜60 minutes and then the initial desorption cycle was initiated. A full experimental cycle typically consisted of three scans (desorption, sorption and desorption) at a constant temperature (25° C.) and 10% RH intervals over a 0-90% range (60 minutes for each humidity level). Data analysis was performed in Microsoft Excel. […] XRPD analysis at both 0% RH and 90% RH post GVS analysis confirmed that the cocrystal was unchanged. […]

[2] = Solid-state stability study, accelerated conditions (40° C./75% RH, 4 months); assay type: physicochemical; conditions: for stability to polymorph conversion or hydrate formation on long storage (summary of Tables 4 and 5): 4 months accelerated conditions and 6 months ambient conditions; for Appearance / XRPD analysis: 40° C./75% RH - 4 months, sealed container
Description: A study was carried out to examine the physical stability of the olaparib oxalic acid cocrystals with respect to solid form conversion or signs of decomposition over time under both ambient and accelerated conditions. 50 mg each of the 2:3 olaparib oxalic acid cocrystal, 1:1 olaparib oxalic acid cocrystal, and 2:1 olaparib oxalic acid cocrystal were separately placed in a sealed container at 40° C. and 75% relative humidity and stored under these conditions for 4 months. After this time, all samples remained as white solids with no signs of deliquescence.

[3] = pH independent; cited from earlier work
[4] = Solid-state stability study, ambient conditions (6 months); assay type: physicochemical; conditions: clear glass vial
Description: A second stability study was carried out where 50 mg each of the 2:3 olaparib oxalic acid cocrystal, 1:1 olaparib oxalic acid cocrystal, and 2:1 olaparib oxalic acid cocrystal were separately placed in a clear glass vial which was then stored under ambient conditions for 6 months. After this time, all the cocrystals remained as white solids with no signs of colour change.

[5] = Dissolution study in simulated intestinal fluid (FaSSIF V2); assay type: physicochemical; conditions: from four minutes onwards; 50 ml FaSSIF V2, pH 6.5, 37° C.; FIG. 12
Description: For BCS class IV drugs, such as olaparib, where both solubility and permeability are limited, the rate of dissolution of the drug form used can be the controlling factor in the overall absorption and thus the bioavailability of a drug. This becomes even more influential as the dose of a drug increases. Given the high dose of olaparib needed in its current marketed indications it is likely that a high dose may be needed for use in alternative conditions, thus finding a crystalline form of olaparib that has a high dissolution rate is important. A study was, therefore, carried out to examine the rate of dissolution of the 2:3 olaparib oxalic acid cocrystal, 1:1 olaparib oxalic acid cocrystal, and 2:1 olaparib oxalic acid compared with the 1:1 olaparib urea cocrystal of CN 105753789 and the pure crystalline olaparib form A. The dissolution study was carried out using 50 ml simulated intestinal fluid (FaSSIF V2) at pH 6.5 (37° C.) using a quantity of each olaparib form equivalent to 25 mg olaparib. […] Detection and quantification of olaparib was performed by in-situ UV-spectroscopy using a fibre-optic probe, allowing instantaneous data collection from the point of sample introduction. UV absorption data was converted to mg/ml (±0.2 mg/ml) using a previously determined pH dependent molar extinction coefficients to quantitate the amount of dissolved drug.

[6] = EMA/CHMP/789139/2014; low solubility and low permeability; cited from earlier work

Row | Structure (SMILES) | polymorphic form conversion or hydrate formation under raised relative humidity levels ([1]; 0-90% RH, 25° C.) | moisture reversibly adsorbed (GVS) [1] [% w/w] | XRPD analysis post GVS analysis [1] | stability to polymorph conversion or hydrate formation on long storage (summary of Tables 4 and 5) [2] | Appearance [2] | XRPD analysis [2] | Appearance [4] | XRPD analysis [4] | other results
1 | O=C(O)C(=O)O.O=C(O)C(=O)O.O=C(O)C(=O)O.O=C(c1cc(Cc2n[nH]c(=O)c3ccccc23)ccc1F)N1CCN(C(=O)C2CC2)CC1.O=C(c1cc(Cc2n[nH]c(=O)c3ccccc23)ccc1F)N1CCN(C(=O)C2CC2)CC1 [2:3 olaparib oxalic acid cocrystal] | does not show any polymorphic form conversion or hydrate formation | 0.23 | unchanged | stable to polymorph conversion or hydrate formation | No change | No change | – | – | hygroscopicity ([1]; 0-90% RH, 25° C.): not hygroscopic
2 | O=C(c1cc(Cc2n[nH]c(=O)c3ccccc23)ccc1F)N1CCN(C(=O)C2CC2)CC1 [polymorph A] | – | – | – | – | – | – | – | – | aqueous solubility [3]: ~100 µg/mL (≈ 230 µM)
3 | O=C(O)C(=O)O.O=C(c1cc(Cc2n[nH]c(=O)c3ccccc23)ccc1F)N1CCN(C(=O)C2CC2)CC1.O=C(c1cc(Cc2n[nH]c(=O)c3ccccc23)ccc1F)N1CCN(C(=O)C2CC2)CC1 [2:1 olaparib oxalic acid cocrystal] | does not show any polymorphic form conversion or hydrate formation | 0.59 | unchanged | stable to polymorph conversion or hydrate formation | No change | No change | No change | No change | –
4 | NC(N)=O.O=C(c1cc(Cc2n[nH]c(=O)c3ccccc23)ccc1F)N1CCN(C(=O)C2CC2)CC1 [1:1 olaparib urea cocrystal] | – | – | – | – | – | – | – | – | level of dissolution compared with pure crystalline olaparib form A [5]: only achieves the same level of dissolution as pure crystalline olaparib form A
5 | O=C(O)C(=O)O.O=C(c1cc(Cc2n[nH]c(=O)c3ccccc23)ccc1F)N1CCN(C(=O)C2CC2)CC1 [1:1 olaparib oxalic acid cocrystal] | – | – | – | stable to polymorph conversion or hydrate formation | No change | No change | No change | No change | –
6 | O=C(c1cc(Cc2n[nH]c(=O)c3ccccc23)ccc1F)N1CCN(C(=O)C2CC2)CC1 [olaparib, 4-[(3-{[4-(cyclopropylcarbonyl)piperazin-1-yl]carbonyl}-4-fluorophenyl)methyl]phthalazin-1(2H)-one] | – | – | – | – | – | – | – | – | BCS class [6]: class IV; also recorded: class 4
